Test results from patent US20040044007A1, “Indoline derivatives” (H. Lundbeck A/S, priority 2000, published 2004).
Where a name gives a salt, the structure may show the parent alone.

Tests used:
[1] = biological target: T1, human cloned dopamine D4.2 receptors (Homo sapiens, UniProt P21917, DEL265-296); assay: Inhibition of the binding of [3H]YM-09151-2 to D4.2 receptors; conditions: [3H]YM-09151-2 0.06 nM; for % inhib. at the D4-receptor: % inhibition of binding at 50 nM; for IC50: membranes of CHO-cells, read-out: IC50 (nM) at the D4-receptor
T1 construct: expressed in transfected cells; host or cells: CHO cells
T1 sequence (P21917 with tags, fused parts or gaps DEL265-296): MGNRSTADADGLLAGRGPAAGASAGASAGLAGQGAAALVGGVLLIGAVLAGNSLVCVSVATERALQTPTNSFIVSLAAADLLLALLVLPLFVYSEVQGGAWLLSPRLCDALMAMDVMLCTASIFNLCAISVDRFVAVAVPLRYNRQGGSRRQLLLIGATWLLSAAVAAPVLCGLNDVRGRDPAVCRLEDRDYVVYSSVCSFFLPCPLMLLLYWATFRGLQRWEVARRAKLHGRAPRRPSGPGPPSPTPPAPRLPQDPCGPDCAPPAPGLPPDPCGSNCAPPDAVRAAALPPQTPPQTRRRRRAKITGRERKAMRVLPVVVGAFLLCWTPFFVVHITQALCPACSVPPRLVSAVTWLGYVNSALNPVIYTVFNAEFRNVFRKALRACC
Description: The method is modified from NEN Life Science Products, Inc., technical data certificate PC2533-10/96.

5-HT2A receptors = biological target: T2, 5-HT2A receptors (Rattus norvegicus, UniProt P14842); assay: Inhibition of the binding of [3H]Ketanserin to 5-HT2A receptors; conditions: [3H]Ketanserin 0.50 nM, membranes from rat brain (cortex); read-out: IC50 (nM) at the 5HT2A-receptor
T2 construct: membranes from rat brain (cortex) in vitro; from tissue; host or cells: rat brain cortex membranes
Experimental: Inhibition of the Binding of [^3H]Ketanserin to 5-HT2A Receptors
The compounds were tested with respect to their affinity for 5-HT2A receptors by determining their ability to inhibit binding of [^3H]Ketanserin (0.50 nM) to membranes from rat brain (cortex) in vitro. Method described in Sanchez et al. Drug Dev. Res. 1991, 22, 239-250.

D4 receptor = biological target: T3, D4 receptor (Homo sapiens, UniProt P21917); conditions: various in vitro efficacy assays (Gazi et al.); cited from earlier work
T3 sequence (P21917 1-419): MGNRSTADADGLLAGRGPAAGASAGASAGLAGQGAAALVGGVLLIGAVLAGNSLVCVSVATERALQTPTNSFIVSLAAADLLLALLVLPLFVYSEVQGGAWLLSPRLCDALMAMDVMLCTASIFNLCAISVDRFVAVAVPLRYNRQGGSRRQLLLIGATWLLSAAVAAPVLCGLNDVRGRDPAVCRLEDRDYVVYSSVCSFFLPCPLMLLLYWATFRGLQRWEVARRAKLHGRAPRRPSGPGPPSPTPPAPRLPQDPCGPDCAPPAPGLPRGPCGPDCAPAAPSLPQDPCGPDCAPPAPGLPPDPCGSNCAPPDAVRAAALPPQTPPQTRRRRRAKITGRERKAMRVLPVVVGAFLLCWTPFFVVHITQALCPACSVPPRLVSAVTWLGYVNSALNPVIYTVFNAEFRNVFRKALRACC

T2 sequence (P14842 whole entry): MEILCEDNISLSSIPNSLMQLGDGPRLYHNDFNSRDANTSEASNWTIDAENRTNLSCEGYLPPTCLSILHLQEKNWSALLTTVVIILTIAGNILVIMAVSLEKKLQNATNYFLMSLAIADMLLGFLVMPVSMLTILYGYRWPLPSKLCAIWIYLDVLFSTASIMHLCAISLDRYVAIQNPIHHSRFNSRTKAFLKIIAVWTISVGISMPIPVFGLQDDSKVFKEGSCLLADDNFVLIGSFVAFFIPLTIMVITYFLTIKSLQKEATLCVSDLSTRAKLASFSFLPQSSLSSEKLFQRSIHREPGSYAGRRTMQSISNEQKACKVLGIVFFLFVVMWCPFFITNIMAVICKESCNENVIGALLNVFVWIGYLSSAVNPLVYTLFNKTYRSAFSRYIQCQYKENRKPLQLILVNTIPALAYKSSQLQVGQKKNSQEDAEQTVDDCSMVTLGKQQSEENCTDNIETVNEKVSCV

| SMILES | melting point [°C] | % inhib. at the D4-receptor [1] [%] | IC50 [1] [nM] | IC50 (5-HT2A receptors) [nM] | Functional activity at D4 receptor (D4 receptor) |
| --- | --- | --- | --- | --- | --- |
| CC(=O)N1CC(CCN2CCN(c3ccc(Cl)c(Cl)c3)CC2)c2ccccc21 (single isomer, unassigned; (+)) (as salt: hydrochloride) [Compound 1d, (+)-1-[2-(1-Acetyl-2,3-dihydro-1H-indol-3-yl)ethyl]-4-(3,4-dichlorophenyl)piperazine, hydrochloride] | 184 to 186 |  |  |  |  |
| CC(=O)N1CC(CCN2CCN(c3ccc(C)c(C)c3)CC2)c2ccccc21.Cl (single isomer, unassigned; (+)) [Compound 1a, (+)-1-[2-(1-Acetyl-2,3-dihydro-1H-indol-3-yl)ethyl]-4-(3,4-dimethylphenyl)piperazine, hydrochloride] |  | 88 | < 50 | 5 |  |
| CC(=O)N1CC(CCN2CCN(c3ccc(C)cc3)CC2)c2ccccc21.Cl (single isomer, unassigned; (+)) [Compound 1b, (+)-1-[2-(1-Acetyl-2,3-dihydro-1H-indol-3-yl)ethyl]-4-(4-methylphenyl)piperazine, hydrochloride] | 217 to 220 | 88 | < 50 | 15 |  |
| CC(=O)N1CC(CCN2CCC(c3ccc(C)cc3)CC2)c2ccccc21 (single isomer, unassigned; (+)) [Compound 1c, (+)-1-[2-(1-Acetyl-2,3-dihydro-1H-indol-3-yl)ethyl]-4-(4-methylphenyl)piperidine] | 112 to 114 | 76 | < 50 | 17 |  |
| CC(=O)N1CC(CCN2CCN(c3ccc(Cl)c(Cl)c3)CC2)c2ccccc21 (single isomer, unassigned; (+)) [Compound 1d, (+)-1-[2-(1-Acetyl-2,3-dihydro-1H-indol-3-yl)ethyl]-4-(3,4-dichlorophenyl)piperazine, hydrochloride] |  | 86 | < 50 | 21 |  |
| CC(=O)N1CC(CCN2CCN(c3ccc(Br)cc3)CC2)c2ccccc21 (stereo not drawn) [Compound 1e, (+)-]-[2-(1-Acetyl-2,3-dihydro-1H-indol-3-yl)ethyl]-4-(4-bromophenyl)piperazine, hydrochloride] |  | 95 | < 50 | 17 |  |
| CC(=O)N1CC(CCN2CC=C(c3ccc(Cl)c(Cl)c3)CC2)c2ccccc21 (centres unmarked) [Compound 1f, ]-[2-(1-Acetyl-2,3-dihydro-1H-indol-3-yl)ethyl]-4-(3,4-dichlorophenyl)-3,6-dihydro-2H-pyridine, hydrochloride] |  |  | 13 | 27 |  |
| CC(=O)N1CC(CCN2CCC(c3ccc(Cl)c(Cl)c3)CC2)c2ccccc21 (centres unmarked) [Compound 1g, 1-[2-(1-Acetyl-2.3-dihydro-1H-indol-3-yl)ethyl]-4-(3.4-dichlorophenyl)piperidine, hydrochloride] |  |  | 5.4 | 21 |  |
| CC(C)Oc1cccnc1N(C)C1CCN(Cc2ccccc2)CC1 [Compound U-101958] |  |  |  |  | partial D4 receptor agonists |
